In US20240343717A1, “MICROBIOCIDAL PYRAZOLE DERIVATIVES” (SYNGENTA CROP PROTECTION AG, priority 2021, published 2024):

Experiments:
[1] = system: Botryotinia fuckeliana (Botrytis cinerea); assay: Botryotinia fuckeliana (Botrytis cinerea) / liquid culture (gray mould); format: cell-based; conditions: growth inhibition photometrically 3-4 days after application, read-out: control of Botryotinia fuckeliana
Summary of the method: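 Conidia suspended in Vogels broth and added to compound dispensed from DMSO. Incubated at 24°C, with growth inhibition measured photometrically 3–4 days later.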

[2] = system: Glomerella lagenarium (Colletotrichum lagenarium); assay: Glomerella lagenarium (Colletotrichum lagenarium) / liquid culture (anthracnose); format: cell-based; conditions: Colletotrichum orbiculare, growth inhibition photometrically 3-4 days after application, read-out: control of Glomerella lagenarium
Summary of the method: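 Cryo-stored conidia in potato dextrose broth were added to test compound in DMSO. Plates were incubated at 24° C, and growth inhibition was read photometrically 3-4 days after application.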

[3] = system: Pyrenophora teres; assay: Pyrenophora teres / barley / leaf disc preventative (net blotch); format: in vivo; conditions: foliar, barley leaf segments, inoculated 2 days after application
Summary of the method: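 Barley cv. Hasso leaf segments on agar sprayed with formulated compound, inoculated with spores 2 days later. Incubated at 20 °C, 65% rh, 12 h light/dark; disease control versus untreated assessed 5–7 days after application.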

[4] = system: Mycosphaerella graminicola (Septoria tritici); assay: Mycosphaerella graminicola (Septoria tritici) / liquid culture (Septoria blotch); format: cell-based; conditions: Zymoseptoria tritici, growth inhibition photometrically 4-5 days after application, read-out: control of Mycosphaerella graminicola
Summary of the method: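 Conidia suspended in potato dextrose broth and added to test compound supplied in DMSO in 96-well plates. Incubated at 24 °C, and growth inhibition read photometrically 4-5 days after application.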

[5] = system: Mycosphaerella arachidis (Cercospora arachidicola); assay: Mycosphaerella arachidis (Cercospora arachidicola) / liquid culture (early leaf spot); format: cell-based; conditions: growth inhibition photometrically 4-5 days after application, read-out: control of Mycosphaerella arachidis
Summary of the method: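 Spores taken straight from cryostorage are suspended in potato dextrose broth and added to test compound in DMSO. Plates are incubated at 24° C. Growth inhibition is scored photometrically 4-5 days after application.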

[6] = system: Monographella nivalis (Microdochium nivale); assay: Monographella nivalis (Microdochium nivale) / liquid culture (foot rot cereals); format: cell-based; conditions: growth inhibition photometrically 4-5 days after application, read-out: control of Monographella nivalis
Summary of the method: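 Fungal conidia mixed directly into potato dextrose broth and added to test compound delivered in DMSO. Incubated at 24° C; growth inhibition read photometrically 4-5 days after application.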

[7] = system: Blumeria graminis f. sp. tritici (Erysiphe graminis f. sp. tritici); assay: Blumeria graminis f. sp. tritici / wheat / leaf disc preventative (powdery mildew on wheat); format: in vivo; conditions: foliar, wheat leaf segments, inoculated 1 day after application
Summary of the method: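 Wheat cv. Kanzler leaf segments on agar sprayed with formulated compound in water, inoculated 1 day later by shaking mildew-infected plants overhead. Incubated at 20° C, 60% rh, 24 h dark then 12 h light/12 h dark. Percent disease control versus untreated scored 6-8 days after application.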

[8] = system: Gibberella zeae (Fusarium graminearum); assay: whole plant or invertebrate; format: in vivo; conditions: in Triticum aestivum, read-out: control of Gibberella zeae
[9] = system: Sclerotinia sclerotiorum; assay: Sclerotinia sclerotiorum / liquid culture (cottony rot); format: cell-based; conditions: growth inhibition photometrically 3-4 days after application, read-out: control of Sclerotinia sclerotiorum
Procedure: Example B15: Sclerotinia sclerotiorum/Liquid Culture (Cottony Rot) Mycelia fragments of a newly grown liquid culture of the fungus are directly mixed into nutrient broth (PDB potato dextrose broth). After placing a (DMSO) solution of test compound into a microtiter plate (96-well format) the nutrient broth containing the fungal material is added. The test plates are incubated at 24° C. and the inhibition of growth is determined photometrically 3-4 days after application.

[10] = system: Fusarium culmorum; assay: microbe, parasite or virus in culture; format: cell-based; conditions: read-out: control of Fusarium culmorum
[11] = system: Fusarium culmorum; assay: whole plant or invertebrate; format: in vivo; conditions: in Triticum aestivum, read-out: control of Fusarium culmorum
[12] = system: Phaeosphaeria nodorum (Septoria nodorum); assay: Phaeosphaeria nodorum (Septoria nodorum) / wheat / leaf disc preventative (glume blotch); format: in vivo; conditions: Parastagonospora nodorum, foliar, wheat leaf segments, inoculated 2 days after application
Summary of the method: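 Wheat cv. Kanzler leaf segments on agar sprayed preventatively with formulated compound diluted in water, then inoculated with spore suspension 2 days after application. Incubated at 20° C, 75% rh, 12 h light/12 h dark; percent disease control versus untreated scored 5-7 days after application.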

[13] = system: Alternaria solani; assay: Alternaria solani / tomato / leaf disc (early blight); format: in vivo; conditions: foliar, tomato leaf disks, sprayed 2 days before inoculation, compared to untreated control
Procedure: Example B1: Alternaria solani/Tomato/Leaf Disc (Early Blight) Tomato leaf disks cv. Baby are placed on agar in multiwell plates (24-well format) and sprayed with the formulated test compound diluted in water. The leaf disks are inoculated with a spore suspension of the fungus 2 days after application. The inoculated leaf disks are incubated at 23° C./21° C.

[14] = system: Magnaporthe grisea (Pyricularia Oryzae); assay: whole plant or invertebrate; format: in vivo; conditions: foliar, read-out: control of Magnaporthe grisea

| Compound | inhibition of growth at 20 ppm [1] | inhibition of growth at 20 ppm [2] | pest or weed control at 200 ppm [3] | inhibition of growth at 20 ppm [4] | inhibition of growth at 20 ppm [5] | inhibition of growth at 20 ppm [6] | pest or weed control at 200 ppm [7] | pest or weed control at 200 ppm [8] | inhibition of growth at 20 ppm [9] | inhibition of growth at 20 ppm [10] | pest or weed control at 200 ppm [11] | melting point | pest or weed control at 200 ppm [12] | pest or weed control at 200 ppm [13] | pest or weed control at 200 ppm [14] |
| --- | --- | --- | --- | --- | --- | --- | --- | --- | --- | --- | --- | --- | --- | --- | --- |
| Cc1cccc(C(C)(CNC(=O)c2cc(-c3ccc(F)cc3F)on2)c2cnn(C)c2)n1 (centres unmarked) [Compound P-16, 5-(2,4-difluorophenyl)-N-[2-(1-methylpyrazol-4-yl)-2-(6-methyl-2-pyridyl)propyl] isoxazole-3-carboxamide] | ≥ 80% | ≥ 80% | ≥ 80% | ≥ 80% | ≥ 80% | ≥ 80% | ≥ 80% | ≥ 80% | ≥ 80% | ≥ 80% | ≥ 80% |  |  |  |  |
| COc1cc(Cl)nc(C(C)(CNC(=O)c2cc(-c3ccc(F)cc3F)on2)c2cnn(C)c2)c1 (centres unmarked) [Compound P-36, N-[2-(6-chloro-4-methoxy-2-pyridyl)-2-(1-methylpyrazol-4-yl)propyl]-5-(2,4-difluorophenyl) isoxazole-3-carboxamide] | ≥ 80% | ≥ 80% | ≥ 80% | ≥ 80% | ≥ 80% | ≥ 80% | ≥ 80% | ≥ 80% |  | ≥ 80% | ≥ 80% | 157 to 159 °C |  |  |  |
| Cn1cc(C(C)(CNC(=O)c2nnc(-c3ccc(F)cc3F)s2)c2cccc(Br)n2)cn1 (centres unmarked) [Compound P-5, N-[2-(6-bromo-2-pyridyl)-2-(1-methylpyrazol-4-yl)propyl]-5-(2,4-difluorophenyl)-1,3,4-thiadiazole-2-carboxamide] | ≥ 80% | ≥ 80% | ≥ 80% | ≥ 80% | ≥ 80% | ≥ 80% | ≥ 80% | ≥ 80% |  | ≥ 80% | ≥ 80% |  | ≥ 80% | ≥ 80% |  |
| Cn1cc([C@](C)(CNC(=O)c2nnc(-c3ccc(F)cc3F)s2)c2cccc(Cl)n2)cn1 [Compound P-35, N-[(2R)-2-(6-chloro-2-pyridyl)-2-(1-methylpyrazol-4-yl)propyl]-5-(2,4-difluorophenyl)-1,3,4-thiadiazole-2-carboxamide] | ≥ 80% | ≥ 80% | ≥ 80% | ≥ 80% | ≥ 80% | ≥ 80% | ≥ 80% | ≥ 80% | ≥ 80% | ≥ 80% | ≥ 80% |  | ≥ 80% | ≥ 80% |  |
| Cc1cccc(C(C)(CNC(=O)c2cc(-c3ccc(F)cc3F)on2)c2cnn(C)c2Cl)n1 (centres unmarked) [Compound P-73, N-[2-(5-chloro-1-methyl-pyrazol-4-yl)-2-(6-methyl-2-pyridyl)propyl]-5-(2,4-difluorophenyl) isoxazole-3-carboxamide] | ≥ 80% | ≥ 80% | ≥ 80% | ≥ 80% | ≥ 80% | ≥ 80% | ≥ 80% | ≥ 80% | ≥ 80% | ≥ 80% | ≥ 80% |  | ≥ 80% | ≥ 80% |  |
| CCC(CNC(=O)c1cc(-c2ccc(F)cc2F)on1)(c1cnn(C)c1)c1cccc(Cl)n1 (centres unmarked) [Compound P-31, N-[2-(6-chloro-2-pyridyl)-2-(1-methylpyrazol-4-yl)butyl]-5-(2,4-difluorophenyl) isoxazole-3-carboxamide] | ≥ 80% | ≥ 80% | ≥ 80% | ≥ 80% | ≥ 80% | ≥ 80% | ≥ 80% |  | ≥ 80% | ≥ 80% | ≥ 80% |  | ≥ 80% | ≥ 80% |  |
| Cn1cc(C(CNC(=O)c2cc(-c3ccc(F)cc3F)on2)c2cnccn2)cn1 (centres unmarked) [Compound P-8, 5-(2,4-difluorophenyl)-N-[2-(1-methylpyrazol-4-yl)-2-pyrazin-2-yl-ethyl]isoxazole-3-carboxamide] |  |  | ≥ 80% |  |  |  | ≥ 80% |  |  |  |  |  |  |  | ≥ 80% |
| COc1cc(Cl)nc([C@@](C)(CNC(=O)c2cc(-c3ccc(F)cc3F)no2)c2cnn(C)c2)c1 [Compound P-46, N-[(2R)-2-(6-chloro-4-methoxy-2-pyridyl)-2-(1-methylpyrazol-4-yl)propyl]-3-(2,4-difluorophenyl) isoxazole-5-carboxamide] | ≥ 80% | ≥ 80% |  | ≥ 80% | ≥ 80% | ≥ 80% |  | ≥ 80% |  | ≥ 80% | ≥ 80% |  |  |  |  |
| Cn1cc([C@@](C)(CNC(=O)c2nnc(-c3ccc(F)cc3F)s2)c2cccc(Cl)n2)cn1 [Compound P-34, N-[(2S)-2-(6-chloro-2-pyridyl)-2-(1-methylpyrazol-4-yl)propyl]-5-(2,4-difluorophenyl)-1,3,4-thiadiazole-2-carboxamide] | ≥ 80% | ≥ 80% | ≥ 80% | ≥ 80% | ≥ 80% | ≥ 80% | ≥ 80% |  | ≥ 80% | ≥ 80% | ≥ 80% |  | ≥ 80% | ≥ 80% |  |
| CC(C)Nc1cccc(C(C)(CNC(=O)c2cc(-c3ccc(F)cc3F)on2)c2cnn(C)c2)n1 (centres unmarked) [Compound P-103, 5-(2,4-difluorophenyl)-N-[2-[6-(isopropylamino)-2-pyridyl]-2-(1-methylpyrazol-4-yl)propyl]isoxazole-3-carboxamide] |  |  |  | ≥ 80% |  | ≥ 80% |  |  |  |  |  |  |  |  | ≥ 80% |
| COC(=O)c1cccc(C(C)(CNC(=O)c2cc(-c3ccc(F)cc3F)on2)c2cnn(C)c2)n1 (centres unmarked) [Compound P-39, methyl 6-[2-[5-(2,4-difluorophenyl)isoxazole-3-carbonyl]amino]-1-methyl-1-(1-methylpyrazol-4-yl)ethyl]pyridine-2-carboxylate] | ≥ 80% | ≥ 80% |  | ≥ 80% |  | ≥ 80% |  |  |  |  |  |  | ≥ 80% |  | ≥ 80% |
